In US20150086530A1, “DOSING REGIMENS FOR THE TREATMENT OF POMPE DISEASE” (Amicus Therapeutics, Inc., priority 2012, published 2015):

Experiment: Thigh muscle MRI before and after ERT
Format: in vivo
Conditions: at one year of ERT

Substance: rhGAA: human recombinant acid α-glucosidase; alglucosidase alfa (Myozyme/Lumizyme) enzyme replacement therapy given by intravenous infusion
- decrease in muscle mass in posterior thigh: 11%
- decrease in muscle mass in the anterior thigh: 9.8%
- increase in intramuscular fat accumulation: 8.9%
- subcutaneous fat: 6.6%
